Patent US20030203373A1 (priority 2002, published 2003)
Where “and” joins values, the source holds several entries; their conditions need not be identical. Equal entries are not always repeated. Where two headings read alike, the source gives them in different places. Square brackets hold non-standard residues; d marks the D form. Ends that are not written are not given here. Peptide text beside a SMILES is read from it. pGlu = O=C1CC[C@@H](C(=O)O)N1

Target: T1, ACE from pig kidney (Sus scrofa, UniProt F1RRW5)
T1 construct: 1 mU ACE from pig kidney (EC 3.4.15.1 (Sigma)); purchased Sigma; host or cells: pig kidney (tissue-derived enzyme)
T1 sequence (F1RRW5 34-1309): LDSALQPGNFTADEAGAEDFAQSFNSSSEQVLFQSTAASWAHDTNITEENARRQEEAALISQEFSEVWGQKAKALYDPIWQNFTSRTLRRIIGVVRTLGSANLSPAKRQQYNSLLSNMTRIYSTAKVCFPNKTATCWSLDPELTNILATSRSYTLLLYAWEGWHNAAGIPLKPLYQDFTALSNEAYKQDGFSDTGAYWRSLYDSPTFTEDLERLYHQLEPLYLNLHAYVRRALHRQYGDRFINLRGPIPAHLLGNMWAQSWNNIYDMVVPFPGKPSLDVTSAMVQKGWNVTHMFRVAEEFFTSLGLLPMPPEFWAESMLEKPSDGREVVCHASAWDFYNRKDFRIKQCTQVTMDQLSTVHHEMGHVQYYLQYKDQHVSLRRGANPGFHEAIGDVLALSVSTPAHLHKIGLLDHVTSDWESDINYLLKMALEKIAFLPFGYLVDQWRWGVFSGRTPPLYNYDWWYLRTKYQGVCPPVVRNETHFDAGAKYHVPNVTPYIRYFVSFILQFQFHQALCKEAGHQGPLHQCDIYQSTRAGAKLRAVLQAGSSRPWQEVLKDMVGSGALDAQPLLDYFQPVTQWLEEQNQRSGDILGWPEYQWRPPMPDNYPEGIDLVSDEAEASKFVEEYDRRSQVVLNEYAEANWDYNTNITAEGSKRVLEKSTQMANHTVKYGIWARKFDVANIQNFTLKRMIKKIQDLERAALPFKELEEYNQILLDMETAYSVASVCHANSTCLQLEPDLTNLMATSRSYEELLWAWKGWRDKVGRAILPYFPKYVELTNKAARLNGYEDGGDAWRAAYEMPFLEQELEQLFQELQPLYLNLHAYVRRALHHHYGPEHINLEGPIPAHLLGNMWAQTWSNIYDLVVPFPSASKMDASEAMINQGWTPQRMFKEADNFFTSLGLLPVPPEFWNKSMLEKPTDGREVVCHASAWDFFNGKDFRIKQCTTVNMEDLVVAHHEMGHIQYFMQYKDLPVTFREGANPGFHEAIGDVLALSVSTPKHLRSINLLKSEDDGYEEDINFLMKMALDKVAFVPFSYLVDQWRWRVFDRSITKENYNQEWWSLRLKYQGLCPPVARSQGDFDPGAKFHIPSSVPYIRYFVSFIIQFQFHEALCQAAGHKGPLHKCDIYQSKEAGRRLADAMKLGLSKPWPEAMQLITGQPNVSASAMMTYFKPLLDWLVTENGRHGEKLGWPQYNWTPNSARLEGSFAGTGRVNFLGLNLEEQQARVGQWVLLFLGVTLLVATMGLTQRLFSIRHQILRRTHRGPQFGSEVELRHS
Test: biochemical
Type: biochemical
Excerpt: These peptides were investigated for their inhibitory effect using an in vitro-ACE-inhibitor-assay with an angiotensin-converting-enzyme derived from pig kidney. Hippuryl-histidyl-leucin was used as a substrate. […] A concrete experimental description is given below.
The principle of the ACE-inhibition-assay was established by Chejung, H. S., Cushman, D. W.: “Inhibition of homogenous angiotensin converting enzyme of rabbit lung by synthetic venom peptides of Bothrops jararaca.” in Biochimica et Biophysica Acta 293, 451-563 (1973).
The assay was performed in 96 well HTRF-plates (Packard). The concentrations used for each well were:
1 mU ACE from pig kidney (EC 3.4.15.1 (Sigma)) in 30 μl of assay buffer (25 mM HEPES; 0,3 M NaCl, pH 8,2) and 20 μl inhibitor dissolved in assay buffer (0,35-200 μM). The reaction was started by adding 50 μl of 2 mM hippuryl-histidyl-leucin (Sigma) in assay buffer. The reaction was performed at room temperature (22° C.) for 30 minutes and terminated by adding 50 μl of 2 M NaOH. Afterwards 50 μl of 0,5% ortho-phtalaldehyd (Sigma) in methanol were added, 5 minutes later followed by 50 μl of 2,5 M HCl-solution to stabilize the developed fluorescence product.
The results were used to calculate the % inhibition. The IC50-values were determined graphically from a curve showing the dose-reaction ratio.
In order to minimize errors due to time-dependent differences, all pipetting steps were performed in a precise time schedule.

[1] = ACE from pig kidney, determined graphically, read-out: IC50-value (ACE inhibition)
[2] = inhibitor 0.39 μM, replicates A-D
[3] = inhibitor 0.39 μM, replicates A-D, 0.39 µM
[4] = inhibitor 0.78125 μM, replicates A-D
[5] = inhibitor 0.78125 μM, replicates A-D, 0.78125 µM
[6] = inhibitor 1.5625 μM, replicates A-D
[7] = inhibitor 1.5625 μM, replicates A-D, 1.5625 µM
[8] = inhibitor 3.125 μM, replicates A-D
[9] = inhibitor 3.125 μM, replicates A-D, 3.125 µM
[10] = inhibitor 6.25 μM, replicates A-D
[11] = inhibitor 6.25 μM, replicates A-D, 6.25 µM
[12] = inhibitor 12.5 μM, replicates A-D
[13] = inhibitor 12.5 μM, replicates A-D, 12.5 µM
[14] = inhibitor 25 μM, replicates A-D
[15] = inhibitor 25 μM, replicates A-D, 25 µM
[16] = inhibitor 50 μM, replicates A-D
[17] = inhibitor 50 μM, replicates A-D, 50 µM
[18] = inhibitor 100 μM, replicates A-D
[19] = inhibitor 100 μM, replicates A-D, 100 µM
[20] = inhibitor 200 μM, replicates A-D
[21] = inhibitor 200 μM, replicates A-D, 200 µM

## AALSPLPEVPP [Peptide S494]
[1]
  IC50: 9 µM
[2]
  fluorescence reading (ACE Inhibitor Assay): 704319 and 727603 and 762908 and 659968
[3]
  % inhibition (ACE Inhibitor Assay): 2.56% and −0.67% and −5.59% and 8.74%
[4]
  fluorescence reading (ACE Inhibitor Assay): 643151 and 655606 and 667363 and 633619
  inhibition at 0.78125 µM: 11.1%
[5]
  % inhibition (ACE Inhibitor Assay): 9.35% and 7.71% and 12.41%
[6]
  fluorescence reading (ACE Inhibitor Assay): 602329 and 645065 and 664903 and 606137
[7]
  % inhibition (ACE Inhibitor Assay): 16.77% and 10.82% and 8.05% and 16.23%
[8]
  fluorescence reading (ACE Inhibitor Assay): 563277 and 547546 and 579178 and 556345
  inhibition at 3.125 µM: 22.2%
[9]
  % inhibition (ACE Inhibitor Assay): 24.4% and 20% and 23.17%
[10]
  fluorescence reading (ACE Inhibitor Assay): 420434 and 435365 and 427540 and 433344
  inhibition at 6.25 µM: 42.1%
[11]
  % inhibition (ACE Inhibitor Assay): 40.02% and 41.11% and 40.3%
[12]
  fluorescence reading (ACE Inhibitor Assay): 312590 and 306320 and 319249 and 308116
  inhibition at 12.5 µM: 57.1%
[13]
  % inhibition (ACE Inhibitor Assay): 57.99% and 56.19% and 57.74%
[14]
  fluorescence reading (ACE Inhibitor Assay): 193365 and 203903 and 204201 and 188693
  inhibition at 25 µM: 73.7%
[15]
  % inhibition (ACE Inhibitor Assay): 72.26% and 72.21% and 74.38%
[16]
  fluorescence reading (ACE Inhibitor Assay): 119135 and 120732 and 124777 and 108988
  inhibition at 50 µM: 84.1%
[17]
  % inhibition (ACE Inhibitor Assay): 83.84% and 83.28% and 85.48%
[18]
  fluorescence reading (ACE Inhibitor Assay): 59914 and 62551 and 64312 and 57543
  inhibition at 100 µM: 92.3%
[19]
  % inhibition (ACE Inhibitor Assay): 91.94% and 91.7% and 92.64%
[20]
  fluorescence reading (ACE Inhibitor Assay): 34342 and 34053 and 34364 and 34738
  inhibition at 200 µM: 95.9%
[21]
  % inhibition (ACE Inhibitor Assay): 95.91% and 95.82%

## CC(C)C[C@H](NC(=O)[C@@H]1CCCN1C(=O)[C@@H](N)CO)C(=O)N1CCC[C@H]1C(=O)N[C@@H](CCC(=O)O)C(=O)N[C@H](C(=O)N1CCC[C@H]1C(=O)N1CCC[C@H]1C(=O)O)C(C)C [Peptide S547]
[1]
  IC50: 27 µM
[2]
  fluorescence reading (ACE Inhibitor Assay): 968576 and 976911 and 1033152 and 933502
[3]
  % inhibition (ACE Inhibitor Assay): 6.82% and 6.02% and 0.575% and 10.22%
[4]
  fluorescence reading (ACE Inhibitor Assay): 935415 and 959358 and 928034 and 939702
  inhibition at 0.78125 µM: 10%
[5]
  % inhibition (ACE Inhibitor Assay): 7.72% and 10.75% and 9.62%
[6]
  fluorescence reading (ACE Inhibitor Assay): 885259 and 942952 and 905782 and 900439
  inhibition at 1.5625 µM: 14.9%
[7]
  % inhibition (ACE Inhibitor Assay): 9.3% and 12.9% and 13.42%
[8]
  fluorescence reading (ACE Inhibitor Assay): 853233 and 874120 and 919377 and 814056
  inhibition at 3.125 µM: 18%
[9]
  % inhibition (ACE Inhibitor Assay): 15.96% and 11.6% and 21.78%
[10]
  fluorescence reading (ACE Inhibitor Assay): 737068 and 749780 and 773384 and 715138
  inhibition at 6.25 µM: 29.2%
[11]
  % inhibition (ACE Inhibitor Assay): 28% and 25.72% and 31.35%
[12]
  fluorescence reading (ACE Inhibitor Assay): 661504 and 674042 and 682861 and 660883
  inhibition at 12.5 µM: 36.5%
[13]
  % inhibition (ACE Inhibitor Assay): 35.33% and 34.48% and 36.6%
[14]
  fluorescence reading (ACE Inhibitor Assay): 561516 and 529553 and 559590 and 501835
  inhibition at 25 µM: 46.2%
[15]
  % inhibition (ACE Inhibitor Assay): 49.3% and 46.4% and 52%
[16]
  fluorescence reading (ACE Inhibitor Assay): 367055 and 382045 and 460226 and 346051
  inhibition at 50 µM: 65%
[17]
  % inhibition (ACE Inhibitor Assay): 63.59% and 56.02% and 67.07%
[18]
  fluorescence reading (ACE Inhibitor Assay): 229409 and 229360 and 232610 and 214324
  inhibition at 100 µM: 78.4%
[19]
  % inhibition (ACE Inhibitor Assay): 78.05% and 79.82%
[20]
  fluorescence reading (ACE Inhibitor Assay): 115847 and 125213 and 123605 and 113488
  inhibition at 200 µM: 89.4%
[21]
  % inhibition (ACE Inhibitor Assay): 88.45% and 88.6% and 89.58%

## CC[C@H](C)[C@H](NC(=O)[C@H](CC(C)C)NC(=O)[C@@H]1CCCN1C(=O)[C@H](CCSC)NC(=O)[C@@H]1CCC(=O)N1)C(=O)N1CCC[C@H]1C(=O)N[C@@H](CCCNC(=N)N)C(=O)N[C@@H](C)C(=O)N[C@@H](CO)C(=O)N[C@@H](CC(=O)O)C(=O)N[C@@H](CCC(=O)O)C(=O)N[C@@H](CC(N)=O)C(=O)N[C@H](C(=O)N1CCC[C@H]1C(=O)N1CCC[C@H]1C(=O)O)C(C)C [Peptide S682] ([pGlu]MPLIPRASDENVPP-OH)
  IC50: 150 µM

## GAALSPLPEVPP [Peptide S544]
[1]
  IC50: 29 µM
[2]
  fluorescence reading (ACE Inhibitor Assay): 841511 and 894833 and 882762 and 936430
[3]
  % inhibition (ACE Inhibitor Assay): 9.4% and 3.63% and 4.93% and −0.88%
[4]
  fluorescence reading (ACE Inhibitor Assay): 853374 and 881105 and 872351 and 929364
[5]
  % inhibition (ACE Inhibitor Assay): 8.12% and 5.11% and 6.06% and −0.11%
[6]
  fluorescence reading (ACE Inhibitor Assay): 864708 and 811879 and 787983 and 930998
[7]
  % inhibition (ACE Inhibitor Assay): 6.89% and 12.61% and 15.2% and −0.29%
[8]
  fluorescence reading (ACE Inhibitor Assay): 822128 and 840019 and 799408 and 883161
[9]
  % inhibition (ACE Inhibitor Assay): 11.5% and 9.56% and 13.96% and 4.89%
[10]
  fluorescence reading (ACE Inhibitor Assay): 670407 and 719205 and 725919 and 735049
  inhibition at 6.25 µM: 27.9%
[11]
  % inhibition (ACE Inhibitor Assay): 22.66% and 21.93% and 20.94%
[12]
  fluorescence reading (ACE Inhibitor Assay): 668628 and 658367 and 643614 and 684354
  inhibition at 12.5 µM: 28.1%
[13]
  % inhibition (ACE Inhibitor Assay): 29.25% and 30.85% and 26.43%
[14]
  fluorescence reading (ACE Inhibitor Assay): 494831 and 495043 and 522915 and 521311
  inhibition at 25 µM: 47%
[15]
  % inhibition (ACE Inhibitor Assay): 46.95% and 43.93% and 44.1%
[16]
  fluorescence reading (ACE Inhibitor Assay): 263679 and 261020 and 262784 and 286592
  inhibition at 50 µM: 72%
[17]
  % inhibition (ACE Inhibitor Assay): 72.3% and 72.12% and 69.54%
[18]
  fluorescence reading (ACE Inhibitor Assay): 154967 and 152193 and 156501 and 158918
  inhibition at 100 µM: 83.8%
[19]
  % inhibition (ACE Inhibitor Assay): 84.1% and 83.63% and 83.37%
[20]
  fluorescence reading (ACE Inhibitor Assay): 92239 and 93028 and 95574 and 94363
  inhibition at 200 µM: 90.6%
[21]
  % inhibition (ACE Inhibitor Assay): 90.51% and 90.23% and 90.34%
